How the values were obtained:
[1] = tested on: large intestine tissue pieces (crypts); assay: Evaluation 1 of in vitro crypt isolation effect; type: cell-based, mice (C57B6/j); conditions: 37° C. 30 minutes
Description: Eight-week-old male mice (C57B6/j, CLEA Japan, Inc.) were sacrificed by cervical dislocation and the whole large intestine was removed. […] The intestinal tract was longitudinally opened and 5-mm-long tissue pieces were obtained. The tissue pieces were placed in 1.5-mL microtubes each containing 1 mL of Hank's balanced salt solution. The tissue pieces were washed by stirring for 10 minutes with a microtube mixer (MT-400 available from TOMY SEIKO CO., LTD.). After washing, the tissue pieces were transferred to other 1.5-mL microtubes each containing 1 mL of Hank's balanced salt solution, and washed in the same manner.
The tissue pieces were transferred to 1.5-mL microtubes containing the compositions (C-1) to (C-6) and the comparative compositions (C′-1) to (C′-7) each in an amount of 1 mL and were allowed to stand at 37° C. for 30 minutes.
After 30 minutes, the tissue pieces were transferred to other 1.5-mL microtubes each containing 1 mL of Hank's balanced salt solution and stirred for five minutes with a microtube mixer. Thereby, the crypts were isolated. […] Thereby, the tissue was fixed. A 50-μL portion was sampled therefrom and dropped onto dishes, and the number of crypts contained was counted using an optical microscope. The number of crypts was counted three times for each concentration, and the average was calculated therefrom.
The presence of one or more crypts was considered that a sufficient embrittlement effect was obtained.

proximal large intestine = assay: Evaluation 1 of in vivo epithelial detachment effect; design: species or system mice (C57B6/j); conditions: 8 mL at 50° C. over two minutes, once
Description: A longitudinal 1-cm abdominal midline incision was made, and the proximal large intestine was exposed to the outside of the abdominal cavity. A small incision was made in the proximal large intestine 1 cm anal side from the cecum, and a catheter was inserted toward the anal. […] A small incision was made 1 cm anal side from the catheter insertion site, and another catheter was inserted toward the oral side. These two catheters allowed perfusion of the 1-cm-long intestinal tract. The catheters were each fixed with a thread from the outside of the intestinal tract, together with the vasculature, to cut off the blood flow in the 1-cm-long intestinal tract sandwiched between the two catheters.
Immediately after the injection of the biological tissue embrittling agents, 25 mL of Dulbecco's phosphate-buffered saline (without Ca and Mg) was continuously injected three times each over 45 seconds, whereby the crypts were detached. Then, 20 mL of Dulbecco's Modified Eagle's Medium, high glucose, (Sigma-Aldrich Cat #D5796) was injected to antagonize the biological tissue embrittling agents. […] The large intestine was longitudinally cut and flat opened, and was imaged with a fluorescent stereo microscope (Leica M165 FC) and an all-in-one fluorescence microscope (KEYENCE BZ-X800). The images were analyzed with ImageJ and the detached area was measured. […]

[2] = tested on: minced distal large intestine tissue (crypts); assay: Evaluation 2 of in vitro crypt isolation effect; type: cell-based, mice (C57B6/j); conditions: 37° C. 30 minutes
Description: Thereby, the crypts were isolated. […] Thereby, the tissue was fixed. A 50-μL portion was sampled therefrom and dropped onto dishes, and the number of crypts contained was counted using an optical microscope. The number of crypts was counted three times for each concentration, and the average was calculated therefrom.

beagle dogs = conditions: Ca-EDTA compared with Ca-DTPA; cited from earlier work

In the case of `O=C([O-])CN(CCN(CC(=O)O)CC(=O)O)CC(=O)[O-].[Na+].[Na+]` [(Z′-1), disodium ethylenediaminetetraacetate], the Number of crypts ([1]; 2 mM, compositions (C-1), (C′-2)) is reported as 48.67, the Number of crypts ([1]; 8 mM, compositions (C-2), (C′-3)) is reported as 156.33 and the Number of crypts ([1]; 16 mM, compositions (C-3), (C′-4)) is reported as 140. It also gave a Number of crypts ([1]; 32 mM, compositions (C-4), (C′-5)) of 129.33, a Number of crypts ([1]; 64 mM, compositions (C-5), (C′-6)) of 115.33 and a Number of crypts ([1]; 128 mM, compositions (C-6), (C′-7)) of 95.67. The “Evaluation 1 of epithelial detachment effect Detached area” value (proximal large intestine; 230 mM, agents (M-1), (M′-2)) was 30.2 mm^2, the “Evaluation 1 of epithelial detachment effect Detached area” value (proximal large intestine; 500 mM, agent (M′-3)) was 66.0 mm^2 and the Number of crypts ([2]; 3 mM, compositions (C-7) to (C-10), (C′-8)) was 108.89. It also gave a Number of crypts ([2]; 10 mM, compositions (C-11) to (C-14), (C′-9)) of 169.56.

In the case of `O=C(O)CN(CCN(CC(=O)O)CC(=O)O)CC(=O)O.[Ca]` [Ca-EDTA], the “safety of intravenous administration for one month” value (beagle dogs) is listed as “no significant difference in safety”.

For `O=C([O-])CN(CCN(CC(=O)[O-])CC(=O)[O-])CCN(CC(=O)[O-])CC(=O)[O-].[Ca+2].[Na+].[Na+].[Na+]` [Ca-DTPA], the “safety of intravenous administration for one month” value (beagle dogs) is given as “no significant difference in safety”.

From patent US20240059644A1, “COMPOUND, COMPOSITION, BIOTISSUE EMBRITTLEMENT AGENT, BIOTISSUE SURFACE DETACHMENT METHOD, AND BIOTISSUE DETACHMENT KIT” (SANYO CHEMICAL INDUSTRIES, LTD., priority 2020, published 2024)
